Laboratory results published in patent US10800791B2, “Triazole ACC inhibitors and uses thereof” (Gilead Apollo, LLC, priority 2015, dated 2020).
≈ marks a conversion by molar mass, not a printed value. Like-named read-outs stand apart in the source and are kept apart here.

Columns and labels:
Botrtyis cinerea (Bc) = assay: Growth inhibition assay of fungal pathogens, Bc; assay type: cell-based; details: 48 h, growth inhibition at 48 hours vs 2% DMSO control
Summary of the method: (§1)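 Pathogen growth in 17% V8 broth is measured by OD600 at 24 and 48 hours, after blank subtraction, in the presence of compound at 50, 10 and 2 ppm or 2, 0.4 and 0.08 ppm. Inhibition in percent comes from 48-hour readings against the DMSO control.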

[1] = tested on: Phytophthora capsici (Pc); assay: Growth inhibition assay of fungal pathogens, Pc; assay type: cell-based; details: 48 h
Summary of the method: as §1

[2] = tested on: Collectotrichum graminicola (Cg); assay: Growth inhibition assay of fungal pathogens, Cg; assay type: cell-based; details: 48 h, growth inhibition at 48 hours vs 2% DMSO control
Summary of the method: as §1

fungal (fACC2) = fungal (fACC2) (UniProt Q00955); details: read-out: fACC2 (in vitro ACC2 Inhibition Assay, IC50), ADP-Glo, 5 nM ACC2, 20 μM ATP, 20 μM acetyl-CoA
Sequence of fungal (fACC2) (Q00955 whole entry): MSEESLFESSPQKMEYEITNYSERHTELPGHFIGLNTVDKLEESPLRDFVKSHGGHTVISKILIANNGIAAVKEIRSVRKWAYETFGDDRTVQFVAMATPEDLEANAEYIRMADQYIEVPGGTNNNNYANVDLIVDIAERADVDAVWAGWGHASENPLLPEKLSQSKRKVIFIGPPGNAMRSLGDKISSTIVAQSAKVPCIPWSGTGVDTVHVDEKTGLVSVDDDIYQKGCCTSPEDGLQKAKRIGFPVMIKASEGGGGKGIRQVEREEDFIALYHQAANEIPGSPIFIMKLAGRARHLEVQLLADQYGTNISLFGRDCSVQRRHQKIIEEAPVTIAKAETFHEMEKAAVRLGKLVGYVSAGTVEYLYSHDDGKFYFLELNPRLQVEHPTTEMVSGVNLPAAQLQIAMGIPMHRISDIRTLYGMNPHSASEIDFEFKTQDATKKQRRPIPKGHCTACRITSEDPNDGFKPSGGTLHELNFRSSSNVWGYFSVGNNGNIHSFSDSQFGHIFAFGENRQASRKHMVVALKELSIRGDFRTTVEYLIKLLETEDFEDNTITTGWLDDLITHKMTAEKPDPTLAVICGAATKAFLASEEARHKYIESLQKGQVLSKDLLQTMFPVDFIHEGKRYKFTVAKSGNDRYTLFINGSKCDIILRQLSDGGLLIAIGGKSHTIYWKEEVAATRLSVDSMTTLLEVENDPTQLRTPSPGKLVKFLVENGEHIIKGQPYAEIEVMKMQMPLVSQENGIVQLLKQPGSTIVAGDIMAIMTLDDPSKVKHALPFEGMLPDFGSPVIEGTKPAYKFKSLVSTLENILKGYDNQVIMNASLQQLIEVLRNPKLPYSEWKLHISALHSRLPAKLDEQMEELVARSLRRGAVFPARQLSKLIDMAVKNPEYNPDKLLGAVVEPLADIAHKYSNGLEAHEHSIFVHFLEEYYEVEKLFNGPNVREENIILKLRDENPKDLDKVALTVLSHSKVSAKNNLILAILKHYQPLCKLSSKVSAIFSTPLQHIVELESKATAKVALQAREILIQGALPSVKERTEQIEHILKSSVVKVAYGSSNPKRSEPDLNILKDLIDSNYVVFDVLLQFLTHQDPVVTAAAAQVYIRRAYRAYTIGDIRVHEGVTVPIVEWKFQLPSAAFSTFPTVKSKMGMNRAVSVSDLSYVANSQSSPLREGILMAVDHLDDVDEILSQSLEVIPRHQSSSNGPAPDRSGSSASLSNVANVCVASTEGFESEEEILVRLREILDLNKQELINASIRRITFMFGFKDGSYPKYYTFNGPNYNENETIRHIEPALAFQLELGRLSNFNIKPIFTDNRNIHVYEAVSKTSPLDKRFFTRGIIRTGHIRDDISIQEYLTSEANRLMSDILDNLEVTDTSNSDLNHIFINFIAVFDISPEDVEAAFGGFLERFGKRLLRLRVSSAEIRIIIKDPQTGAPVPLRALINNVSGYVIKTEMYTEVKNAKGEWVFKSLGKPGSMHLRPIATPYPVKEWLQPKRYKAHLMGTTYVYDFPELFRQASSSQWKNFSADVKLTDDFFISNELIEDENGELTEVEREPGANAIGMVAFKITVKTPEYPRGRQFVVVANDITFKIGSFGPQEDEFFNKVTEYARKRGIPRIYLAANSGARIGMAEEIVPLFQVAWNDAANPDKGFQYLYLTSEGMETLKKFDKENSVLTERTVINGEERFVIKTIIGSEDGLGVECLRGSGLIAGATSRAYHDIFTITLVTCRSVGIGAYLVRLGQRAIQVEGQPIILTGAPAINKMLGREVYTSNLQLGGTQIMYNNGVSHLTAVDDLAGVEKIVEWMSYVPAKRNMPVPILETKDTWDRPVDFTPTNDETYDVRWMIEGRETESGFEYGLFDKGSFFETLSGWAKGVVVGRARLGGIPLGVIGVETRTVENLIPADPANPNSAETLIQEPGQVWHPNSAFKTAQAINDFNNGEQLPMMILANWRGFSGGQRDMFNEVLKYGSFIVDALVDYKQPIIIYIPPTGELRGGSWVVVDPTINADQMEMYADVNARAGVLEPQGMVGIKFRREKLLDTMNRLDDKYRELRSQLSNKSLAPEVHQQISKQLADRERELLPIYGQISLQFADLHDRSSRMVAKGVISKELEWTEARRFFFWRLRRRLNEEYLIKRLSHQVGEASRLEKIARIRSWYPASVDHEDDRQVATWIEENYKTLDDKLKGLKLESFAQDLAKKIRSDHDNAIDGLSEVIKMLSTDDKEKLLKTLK

[3] = tested on: Fusarium moniliforme (Fm); assay: Growth inhibition assay of fungal pathogens, Fm; assay type: cell-based; details: Fusarium verticillioides, 48 h, read-out: Concentration at 90% Inhibition Fm
Summary of the method: as §1

C. parapsilosis = assay: Antifungal Activity Assay (broth microtiter MIC), C. parapsilosis; assay type: cell-based, Candida parapsilosis; details: Lodderomyces parapsilosis, ATCC22019, 48 h
Summary of the method: (§2)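 Susceptibility was determined by CLSI M27-A3 broth microdilution in RPMI 1640 buffered with MOPS. Growth inhibition was scored visually after 48 h.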

C. albicans = assay: Antifungal Activity Assay (broth microtiter MIC), C. albicans; assay type: cell-based, Candida albicans; details: Candida albicans, ATCC90028, 48 h
Summary of the method: as §2

[4] = tested on: Fusarium virguliforme (Fv); assay: Growth inhibition assay of fungal pathogens, Fv; assay type: cell-based; details: 48 h
Summary of the method: as §1

Rhizoctonia solani (Rs) = assay: Growth inhibition assay of fungal pathogens, Rs; assay type: cell-based; details: 48 h
C. krusei = assay: Antifungal Activity Assay (broth microtiter MIC), C. krusei; assay type: cell-based, Candida krusei; details: Pichia kudriavzevii, ATCC6258, 48 h
Summary of the method: as §2

Diplodia maydis (Dm) = assay: Growth inhibition assay of fungal pathogens, Dm; assay type: cell-based; details: Stenocarpella maydis, 48 h, growth inhibition at 48 hours vs 2% DMSO control
Summary of the method: as §1

Septoria tritici (St) = assay: Growth inhibition assay of fungal pathogens, St; assay type: cell-based; details: Zymoseptoria tritici, 48 h, growth inhibition at 48 hours vs 2% DMSO control
Summary of the method: as §1

human (hACC2) = human (hACC2) (Homo sapiens, UniProt O00763); assay: In vitro ACC inhibition assay (ADP-Glo), hACC2; assay type: biochemical; details: 5 nM ACC2, 20 μM ATP, 20 μM acetyl-CoA
Sequence of human (hACC2) (O00763 whole entry): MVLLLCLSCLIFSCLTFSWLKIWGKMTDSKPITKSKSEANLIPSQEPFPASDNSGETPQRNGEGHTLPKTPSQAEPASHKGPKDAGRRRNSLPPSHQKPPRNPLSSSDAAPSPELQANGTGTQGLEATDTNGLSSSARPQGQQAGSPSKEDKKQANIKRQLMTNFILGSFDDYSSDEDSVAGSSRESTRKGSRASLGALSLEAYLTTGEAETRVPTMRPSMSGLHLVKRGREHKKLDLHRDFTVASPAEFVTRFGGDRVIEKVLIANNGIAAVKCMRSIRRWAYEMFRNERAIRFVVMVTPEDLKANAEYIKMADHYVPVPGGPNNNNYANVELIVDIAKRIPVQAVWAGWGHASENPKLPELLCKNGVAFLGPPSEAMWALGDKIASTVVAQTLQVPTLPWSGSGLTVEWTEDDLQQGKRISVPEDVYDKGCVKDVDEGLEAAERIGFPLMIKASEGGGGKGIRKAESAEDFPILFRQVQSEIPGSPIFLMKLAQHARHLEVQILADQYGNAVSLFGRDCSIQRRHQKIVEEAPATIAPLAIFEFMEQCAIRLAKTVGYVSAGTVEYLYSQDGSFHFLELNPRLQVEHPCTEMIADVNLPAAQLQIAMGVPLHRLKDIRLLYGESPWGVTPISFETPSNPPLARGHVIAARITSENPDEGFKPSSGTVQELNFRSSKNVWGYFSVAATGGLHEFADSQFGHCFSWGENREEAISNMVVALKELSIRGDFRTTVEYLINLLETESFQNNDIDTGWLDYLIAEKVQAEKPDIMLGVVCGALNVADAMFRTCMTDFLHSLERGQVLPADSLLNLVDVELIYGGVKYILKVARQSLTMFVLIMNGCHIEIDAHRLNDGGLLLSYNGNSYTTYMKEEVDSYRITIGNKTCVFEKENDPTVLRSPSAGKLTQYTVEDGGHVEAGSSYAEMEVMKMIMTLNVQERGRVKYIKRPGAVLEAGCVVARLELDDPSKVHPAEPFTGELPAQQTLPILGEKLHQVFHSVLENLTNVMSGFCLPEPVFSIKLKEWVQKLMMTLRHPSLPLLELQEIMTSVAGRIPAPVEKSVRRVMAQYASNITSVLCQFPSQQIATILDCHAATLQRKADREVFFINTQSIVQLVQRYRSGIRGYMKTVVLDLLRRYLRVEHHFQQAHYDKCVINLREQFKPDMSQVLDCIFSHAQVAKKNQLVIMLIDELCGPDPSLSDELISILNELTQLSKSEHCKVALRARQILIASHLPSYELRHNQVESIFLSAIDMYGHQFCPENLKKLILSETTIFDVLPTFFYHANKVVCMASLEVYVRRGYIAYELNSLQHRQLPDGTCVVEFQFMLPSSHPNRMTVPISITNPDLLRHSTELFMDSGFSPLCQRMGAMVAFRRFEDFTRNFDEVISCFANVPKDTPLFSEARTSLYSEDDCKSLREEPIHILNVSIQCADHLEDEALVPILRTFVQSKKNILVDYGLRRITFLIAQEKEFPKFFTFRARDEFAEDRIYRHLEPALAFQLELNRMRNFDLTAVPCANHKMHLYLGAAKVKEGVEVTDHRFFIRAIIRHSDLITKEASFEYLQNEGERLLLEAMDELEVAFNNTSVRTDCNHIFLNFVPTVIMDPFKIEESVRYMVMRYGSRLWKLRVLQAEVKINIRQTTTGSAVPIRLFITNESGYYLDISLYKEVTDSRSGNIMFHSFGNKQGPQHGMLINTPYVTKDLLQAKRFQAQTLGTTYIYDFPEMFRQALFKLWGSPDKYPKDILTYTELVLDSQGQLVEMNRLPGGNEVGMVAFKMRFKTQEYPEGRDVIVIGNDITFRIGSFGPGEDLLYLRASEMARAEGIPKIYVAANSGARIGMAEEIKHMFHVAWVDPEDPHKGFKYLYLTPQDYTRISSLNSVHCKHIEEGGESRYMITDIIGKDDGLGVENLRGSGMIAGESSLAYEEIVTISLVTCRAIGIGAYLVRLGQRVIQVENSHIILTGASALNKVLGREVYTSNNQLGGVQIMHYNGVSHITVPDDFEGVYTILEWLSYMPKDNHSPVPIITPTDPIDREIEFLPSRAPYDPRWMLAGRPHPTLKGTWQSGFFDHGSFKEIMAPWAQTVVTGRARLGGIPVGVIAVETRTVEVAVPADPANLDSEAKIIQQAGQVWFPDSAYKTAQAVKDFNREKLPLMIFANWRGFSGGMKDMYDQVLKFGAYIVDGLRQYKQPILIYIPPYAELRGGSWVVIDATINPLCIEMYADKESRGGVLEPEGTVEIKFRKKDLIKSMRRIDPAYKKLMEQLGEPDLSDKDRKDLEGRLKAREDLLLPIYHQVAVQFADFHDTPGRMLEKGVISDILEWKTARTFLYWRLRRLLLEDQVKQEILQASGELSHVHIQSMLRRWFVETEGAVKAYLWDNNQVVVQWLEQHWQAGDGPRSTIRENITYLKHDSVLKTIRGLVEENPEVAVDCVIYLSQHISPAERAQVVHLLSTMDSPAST
Protocol: The detailed procedure is as follows. […] 10 μL ADP glo reagent was added. […] 20 μL kinase detection reagent was added.

[5] = Botrtyis cinerea, read-out: Concentration at 90% Inhibition Bc
[6] = growth inhibition at 48 hours vs 2% DMSO control, read-out: Concentration at 90% Inhibition Pc
[7] = Collectotrichum graminicola, read-out: Concentration at 90% Inhibition Cg
[8] = Fusarium moniliforme, growth inhibition at 48 hours vs 2% DMSO control
[9] = Table 3a, ATCC 22019, 3 replicates, MIC recorded at 48 h, read-out: MIC, C. parapsilosis ATCC 22019
[10] = Table 3b (additional results), ATCC 22019, 3 replicates, MIC recorded at 48 h, read-out: MIC, C. parapsilosis ATCC 22019
[11] = Table 3a, ATCC 90028, 3 replicates, MIC recorded at 48 h, read-out: MIC, C. albicans ATCC 90028
[12] = Table 3b (additional results), ATCC 90028, 3 replicates, MIC recorded at 48 h, read-out: MIC, C. albicans ATCC 90028
[13] = growth inhibition at 48 hours vs 2% DMSO control, read-out: Concentration at 90% Inhibition Fv
[14] = mycelial plugs, growth inhibition at 48 hours vs 2% DMSO control, read-out: Concentration at 90% Inhibition Rs
[15] = Table 3a, ATCC 6258, 3 replicates, MIC recorded at 48 h, read-out: MIC, C. krusei ATCC 6258
[16] = Table 3b (additional results), ATCC 6258, 3 replicates, MIC recorded at 48 h, read-out: MIC, C. krusei ATCC 6258
[17] = Diplodia maydis, read-out: Concentration at 90% Inhibition Dm
[18] = Septoria tritici, read-out: Concentration at 90% Inhibition St

Compound	IC50 (fungal (fACC2); Table 2a)	IC50 (fungal (fACC2); Table 2b, additional results)	IC50 (human (hACC2); Table 2a)	IC50 (human (hACC2); Table 2b, additional results)	IC90 (Botrtyis cinerea (Bc); [5])	IC90 [1, 6]	IC90 [2, 7]	IC90 [3, 8]	MIC (C. parapsilosis; [9])	MIC (C. parapsilosis; [10])	MIC (C. albicans; [11])	MIC (C. albicans; [12])	IC90 [4, 13]	IC90 (Rhizoctonia solani (Rs); [14])	MIC (C. krusei; [15])	MIC (C. krusei; [16])	IC90 (Diplodia maydis (Dm); [17])	IC90 (Septoria tritici (St); [18])	further results
COc1ccc(F)cc1[C@H](Cn1c(=O)n([C@H](C)C(=O)NC(C)C)c(=O)c2c(C)c(-n3nccn3)sc21)OCCC#N [Compound I-138]	1 to 5 nM	0.3 to 1 nM	1 to 5 nM	1 to 5 nM	–	–	–	–	–	–	–	–	–	–	–	–	–	–	IC90 (Botrtyis cinerea (Bc); read-out: Concentration at 90% Inhibition Bc, Botrtyis cinerea): 0.4 µg/mL (≈ 0.685 µM); IC90 ([1]; read-out: Concentration at 90% Inhibition Pc, Phytophthora capsici, growth inhibition at 48 hours vs 2% DMSO control): 2 µg/mL (≈ 3.43 µM); IC90 ([2]; read-out: Concentration at 90% Inhibition Cg, Collectotrichum graminicola): 0.08 µg/mL (≈ 0.137 µM); IC90 [3]: 0.08 µg/mL (≈ 0.137 µM); MIC (C. parapsilosis; read-out: MIC, C. parapsilosis ATCC 22019, Table 3a, 3 replicates, MIC recorded at 48 h): 0.25 to 1 µg/mL (≈ 0.428 to 1.71 µM); MIC (C. parapsilosis; read-out: MIC, C. parapsilosis ATCC 22019, Table 3b (additional results), 3 replicates, MIC recorded at 48 h): 1.01 to 2 µg/mL (≈ 1.73 to 3.43 µM); MIC (C. albicans; read-out: MIC, C. albicans ATCC 90028, Table 3a, 3 replicates, MIC recorded at 48 h): 0.25 to 1 µg/mL (≈ 0.428 to 1.71 µM); MIC (C. albicans; read-out: MIC, C. albicans ATCC 90028, Table 3b (additional results), 3 replicates, MIC recorded at 48 h): > 4.01 µg/mL; IC90 ([4]; read-out: Concentration at 90% Inhibition Fv, Fusarium virguliforme, growth inhibition at 48 hours vs 2% DMSO control): 0.4 µg/mL (≈ 0.685 µM); IC90 (Rhizoctonia solani (Rs); read-out: Concentration at 90% Inhibition Rs, Rhizoctonia solani, mycelial plugs, growth inhibition at 48 hours vs 2% DMSO control): 0.08 µg/mL (≈ 0.137 µM); MIC (C. krusei; read-out: MIC, C. krusei ATCC 6258, Table 3a, 3 replicates, MIC recorded at 48 h): 0.25 to 1 µg/mL (≈ 0.428 to 1.71 µM); MIC (C. krusei; read-out: MIC, C. krusei ATCC 6258, Table 3b (additional results), 3 replicates, MIC recorded at 48 h): 2.01 to 4 µg/mL (≈ 3.44 to 6.85 µM); IC90 (Diplodia maydis (Dm); read-out: Concentration at 90% Inhibition Dm, Diplodia maydis): 0.08 µg/mL (≈ 0.137 µM); IC90 (Septoria tritici (St); read-out: Concentration at 90% Inhibition St, Septoria tritici): 2 µg/mL (≈ 3.43 µM)
COc1ccc(F)cc1[C@H](Cn1c(=O)n([C@H](C)C(=O)N(C)C(C)C)c(=O)c2c(C)c(-n3nccn3)sc21)OCCC#N [Compound I-139]	5 to 10 nM	1 to 5 nM	5 to 10 nM	1 to 5 nM	0.4 µg/mL (≈ 0.669 µM)	> 50 µg/mL	0.4 µg/mL (≈ 0.669 µM)	0.4 µg/mL (≈ 0.669 µM)	1.1 to 2 µg/mL (≈ 1.84 to 3.35 µM)	2.01 to 4 µg/mL (≈ 3.36 to 6.69 µM)	0.25 to 1 µg/mL (≈ 0.418 to 1.67 µM)	2.01 to 4 µg/mL (≈ 3.36 to 6.69 µM)	0.4 µg/mL (≈ 0.669 µM)	0.08 µg/mL (≈ 0.134 µM)	0.25 to 1 µg/mL (≈ 0.418 to 1.67 µM)	2.01 to 4 µg/mL (≈ 3.36 to 6.69 µM)	0.08 µg/mL (≈ 0.134 µM)	> 50 µg/mL	–
CCNC(=O)C(C)(C)n1c(=O)c2c(C)c(-n3nccn3)sc2n(C[C@H](OCCC#N)c2cc(F)ccc2OC)c1=O [Compound I-140]	1 to 5 nM	1 to 5 nM	5 to 10 nM	5 to 10 nM	0.4 µg/mL (≈ 0.685 µM)	> 50 µg/mL	0.4 µg/mL (≈ 0.685 µM)	0.08 µg/mL (≈ 0.137 µM)	2.1 to 4 µg/mL (≈ 3.6 to 6.85 µM)	1.01 to 2 µg/mL (≈ 1.73 to 3.43 µM)	1.1 to 2 µg/mL (≈ 1.88 to 3.43 µM)	2.01 to 4 µg/mL (≈ 3.44 to 6.85 µM)	0.4 µg/mL (≈ 0.685 µM)	0.08 µg/mL (≈ 0.137 µM)	0.25 to 1 µg/mL (≈ 0.428 to 1.71 µM)	2.01 to 4 µg/mL (≈ 3.44 to 6.85 µM)	0.4 µg/mL (≈ 0.685 µM)	> 50 µg/mL	–
CNC(=O)C(C)(C)n1c(=O)c2c(C)c(-n3nccn3)sc2n(C[C@H](OCCC#N)c2cc(F)ccc2OC)c1=O [Compound I-141]	1 to 5 nM	1 to 5 nM	5 to 10 nM	5 to 10 nM	2 µg/mL (≈ 3.51 µM)	> 50 µg/mL	10 µg/mL (≈ 17.6 µM)	0.08 µg/mL (≈ 0.14 µM)	2.1 to 4 µg/mL (≈ 3.69 to 7.02 µM)	2.01 to 4 µg/mL (≈ 3.53 to 7.02 µM)	2.1 to 4 µg/mL (≈ 3.69 to 7.02 µM)	> 4.01 µg/mL	2 µg/mL (≈ 3.51 µM)	0.08 µg/mL (≈ 0.14 µM)	2.1 to 4 µg/mL (≈ 3.69 to 7.02 µM)	2.01 to 4 µg/mL (≈ 3.53 to 7.02 µM)	2 µg/mL (≈ 3.51 µM)	> 50 µg/mL	–
CCNC(=O)C(C)(C)n1c(=O)c2c(C)c(-n3nccn3)sc2n(C[C@H](OCCC#N)c2ccccc2OC)c1=O [Compound I-142]	1 to 5 nM	1 to 5 nM	1 to 5 nM	1 to 5 nM	0.4 µg/mL (≈ 0.707 µM)	> 50 µg/mL	2 µg/mL (≈ 3.54 µM)	0.4 µg/mL (≈ 0.707 µM)	2.1 to 4 µg/mL (≈ 3.71 to 7.07 µM)	1.01 to 2 µg/mL (≈ 1.79 to 3.54 µM)	2.1 to 4 µg/mL (≈ 3.71 to 7.07 µM)	2.01 to 4 µg/mL (≈ 3.55 to 7.07 µM)	0.4 µg/mL (≈ 0.707 µM)	0.08 µg/mL (≈ 0.141 µM)	1.1 to 2 µg/mL (≈ 1.94 to 3.54 µM)	2.01 to 4 µg/mL (≈ 3.55 to 7.07 µM)	2 µg/mL (≈ 3.54 µM)	> 50 µg/mL	–
CNC(=O)C(C)(C)n1c(=O)c2c(C)c(-n3nccn3)sc2n(C[C@H](OCCC#N)c2ccccc2OC)c1=O [Compound I-143]	1 to 5 nM	1 to 5 nM	5 to 10 nM	5 to 10 nM	2 µg/mL (≈ 3.63 µM)	> 50 µg/mL	> 50 µg/mL	0.08 µg/mL (≈ 0.145 µM)	2.1 to 4 µg/mL (≈ 3.81 to 7.25 µM)	1.01 to 2 µg/mL (≈ 1.83 to 3.63 µM)	2.1 to 4 µg/mL (≈ 3.81 to 7.25 µM)	2.01 to 4 µg/mL (≈ 3.64 to 7.25 µM)	10 µg/mL (≈ 18.1 µM)	0.08 µg/mL (≈ 0.145 µM)	2.1 to 4 µg/mL (≈ 3.81 to 7.25 µM)	2.01 to 4 µg/mL (≈ 3.64 to 7.25 µM)	10 µg/mL (≈ 18.1 µM)	> 50 µg/mL	–
